Experimental data reported in patent publication US6576595B1, “Xanthone derivatives, processes for their preparation and their use for controlling harmful fungi, and compositions comprising these derivatives” (BASF Aktiengesellschaft, priority 2001, dated 2003).

What was measured:
[1] = tested on: mildew of wheat (Blumeria graminis forma specialis tritici); assay: activity against powdery mildew of wheat (protective spray test on potted wheat seedlings); format: in vivo; conditions: wheat seedlings cultivar Kanzler, sprayed 24 h before inoculation, assessed visually after 7 days, untreated plants 90% infected
Experimental: The active compounds were prepared separately or jointly as a 10% strength emulsion in a mixture of 70% by weight of cyclohexanone, 20% by weight of Nekanil® LN (Lutensol® AP6, wetting agent having emulsifying and dispersing action based on ethoxylated alkylphenols) and 10% by weight of Wettol® EM (nonionic emulsifier based on ethoxylated castor oil) and diluted with water to the desired concentration.
Use example—activity against powdery mildew of wheat
Leaves of potted wheat seedlings of the cultivar “Kanzler” were sprayed to runoff point with an aqueous preparation of active compound which had been prepared from a stock solution of 10% of active compound, 63% of cyclohexanone and 27% of emulsifier. 24 hours after the spray coating had dried on, the leaves were dusted with spores of mildew of wheat (Blumeria graminis forma specialis tritici). The test plants were then placed in a greenhouse at 20-24° C. and 60 to 90% relative atmospheric humidity.
After 7 days, the extent of the mildew development was determined visually in % infection of the entire leaf area.

Row | SMILES | melting point | extent of the mildew development in % infection of the entire leaf area ([1]; 4 ppm active compound) | extent of the mildew development in % infection of the entire leaf area ([1]; 16 ppm active compound)
1 | COc1cc(C)c2c(=O)c3c(oc2c1OC)C(Br)=CCC3(C)OC (centres unmarked) | 162 °C |  | 
2 | COc1cc(C)c2c(=O)c3c(C)c(Cl)ccc3oc2c1OC [I-5, 7-chloro-3,4-dimethoxy-1,8-dimethylxanthen-9-one] | 180 °C | not more than 3% | not more than 3%
3 | COc1cc(C)c2c(=O)c3c(OC)cccc3oc2c1OC | 158 °C |  | 
